Publication PMC10175918 (Communications Biology, 2023)
Like-named read-outs stand apart in the source and are kept apart here.

Tests used:
Assay in all cases: TGFα-shedding assay-based GPCR screening with chimeric Gα subunit proteins
Assay type in all cases: cell-based
348 GPCRs [1] = molecular target: 348 GPCRs (Homo sapiens, UniProt P30872); settings: 10µM, Favipiravir 100μM
348 GPCRs [2] = molecular target: T1, 348 GPCRs (Homo sapiens, UniProt P34969); settings: 10µM, Favipiravir 100μM
T1 construct: expressed in transfected cells; host or cells: HEK293A
T1 sequence (P34969 whole entry): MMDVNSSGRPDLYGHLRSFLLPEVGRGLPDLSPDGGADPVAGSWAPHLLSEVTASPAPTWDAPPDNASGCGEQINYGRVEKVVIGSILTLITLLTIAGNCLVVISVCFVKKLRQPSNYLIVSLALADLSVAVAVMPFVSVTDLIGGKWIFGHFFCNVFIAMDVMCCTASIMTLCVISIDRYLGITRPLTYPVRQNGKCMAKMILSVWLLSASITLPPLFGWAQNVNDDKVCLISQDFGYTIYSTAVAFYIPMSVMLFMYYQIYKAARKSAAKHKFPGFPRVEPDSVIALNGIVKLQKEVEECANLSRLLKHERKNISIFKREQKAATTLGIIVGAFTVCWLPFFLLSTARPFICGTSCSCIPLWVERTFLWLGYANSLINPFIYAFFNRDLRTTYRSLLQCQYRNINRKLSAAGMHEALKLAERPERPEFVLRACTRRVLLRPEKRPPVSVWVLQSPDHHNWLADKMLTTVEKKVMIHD

348 GPCRs [3] = molecular target: T2, 348 GPCRs (Homo sapiens, UniProt P50391); settings: 10µM, Favipiravir 100μM
T2 construct: expressed in transfected cells; host or cells: HEK293A
T2 sequence (P50391 whole entry): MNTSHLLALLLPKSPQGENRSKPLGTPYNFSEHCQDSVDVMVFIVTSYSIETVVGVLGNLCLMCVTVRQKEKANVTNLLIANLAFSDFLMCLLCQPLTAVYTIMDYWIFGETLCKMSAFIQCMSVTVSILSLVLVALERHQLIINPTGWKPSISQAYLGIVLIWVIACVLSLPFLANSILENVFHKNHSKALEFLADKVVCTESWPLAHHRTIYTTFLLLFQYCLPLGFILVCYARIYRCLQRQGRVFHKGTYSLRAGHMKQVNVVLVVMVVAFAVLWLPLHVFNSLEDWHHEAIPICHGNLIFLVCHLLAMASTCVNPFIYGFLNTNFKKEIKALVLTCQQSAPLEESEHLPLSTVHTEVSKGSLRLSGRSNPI

348 GPCRs [4] = molecular target: 348 GPCRs (Homo sapiens, UniProt P61073)
Sequence of 348 GPCRs (Homo sapiens, UniProt P61073) (P61073 whole entry): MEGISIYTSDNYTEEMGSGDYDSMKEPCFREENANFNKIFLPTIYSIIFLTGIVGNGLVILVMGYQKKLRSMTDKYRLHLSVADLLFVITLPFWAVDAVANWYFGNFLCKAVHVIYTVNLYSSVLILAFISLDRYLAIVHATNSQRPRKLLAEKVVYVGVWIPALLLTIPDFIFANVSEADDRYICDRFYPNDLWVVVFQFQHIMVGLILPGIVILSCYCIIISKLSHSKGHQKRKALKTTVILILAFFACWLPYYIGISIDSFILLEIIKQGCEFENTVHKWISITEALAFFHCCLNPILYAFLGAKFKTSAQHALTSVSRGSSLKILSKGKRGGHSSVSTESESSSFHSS

348 GPCRs [5] = molecular target: T3, 348 GPCRs (Homo sapiens, UniProt Q8IWK6); settings: 10µM, Favipiravir 100μM
T3 construct: expressed in transfected cells; host or cells: HEK293A
T3 sequence (Q8IWK6 34-1321): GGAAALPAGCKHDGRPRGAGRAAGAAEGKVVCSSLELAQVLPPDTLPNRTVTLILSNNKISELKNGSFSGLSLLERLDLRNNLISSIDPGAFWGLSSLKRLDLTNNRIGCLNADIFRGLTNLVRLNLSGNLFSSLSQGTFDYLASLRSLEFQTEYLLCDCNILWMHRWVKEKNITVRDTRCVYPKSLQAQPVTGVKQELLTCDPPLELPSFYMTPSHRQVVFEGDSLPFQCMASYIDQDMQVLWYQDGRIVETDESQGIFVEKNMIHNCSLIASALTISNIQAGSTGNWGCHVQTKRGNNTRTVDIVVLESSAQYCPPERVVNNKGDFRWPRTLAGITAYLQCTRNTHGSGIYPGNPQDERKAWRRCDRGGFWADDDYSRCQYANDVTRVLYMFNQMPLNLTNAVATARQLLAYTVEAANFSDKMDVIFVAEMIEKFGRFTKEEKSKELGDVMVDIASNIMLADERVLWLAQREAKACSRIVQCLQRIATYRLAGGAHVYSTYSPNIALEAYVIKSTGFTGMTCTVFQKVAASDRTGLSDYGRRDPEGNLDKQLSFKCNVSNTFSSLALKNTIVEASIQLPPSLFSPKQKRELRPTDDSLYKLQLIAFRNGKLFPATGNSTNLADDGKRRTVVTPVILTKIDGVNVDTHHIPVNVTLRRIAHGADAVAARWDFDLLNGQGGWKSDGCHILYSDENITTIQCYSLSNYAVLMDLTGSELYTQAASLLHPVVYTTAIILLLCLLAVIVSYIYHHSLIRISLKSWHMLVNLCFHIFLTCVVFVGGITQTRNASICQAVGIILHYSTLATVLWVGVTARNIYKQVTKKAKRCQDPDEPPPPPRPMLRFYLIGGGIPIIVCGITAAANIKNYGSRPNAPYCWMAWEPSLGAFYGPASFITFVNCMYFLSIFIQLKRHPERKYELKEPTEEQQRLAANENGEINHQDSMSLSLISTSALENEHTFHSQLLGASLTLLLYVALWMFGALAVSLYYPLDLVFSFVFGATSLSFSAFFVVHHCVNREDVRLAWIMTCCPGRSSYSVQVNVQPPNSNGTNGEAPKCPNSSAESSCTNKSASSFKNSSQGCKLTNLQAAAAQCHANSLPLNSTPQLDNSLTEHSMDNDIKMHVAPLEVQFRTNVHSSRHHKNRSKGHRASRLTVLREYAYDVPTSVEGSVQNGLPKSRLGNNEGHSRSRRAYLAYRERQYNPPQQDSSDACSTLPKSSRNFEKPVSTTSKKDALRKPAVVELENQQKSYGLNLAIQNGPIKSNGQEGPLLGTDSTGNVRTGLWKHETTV

348 GPCRs [6] = molecular target: T4, 348 GPCRs (Homo sapiens, UniProt Q8IZF3)
T4 construct: expressed in transfected cells; host or cells: HEK293A
T4 sequence (Q8IZF3 22-695): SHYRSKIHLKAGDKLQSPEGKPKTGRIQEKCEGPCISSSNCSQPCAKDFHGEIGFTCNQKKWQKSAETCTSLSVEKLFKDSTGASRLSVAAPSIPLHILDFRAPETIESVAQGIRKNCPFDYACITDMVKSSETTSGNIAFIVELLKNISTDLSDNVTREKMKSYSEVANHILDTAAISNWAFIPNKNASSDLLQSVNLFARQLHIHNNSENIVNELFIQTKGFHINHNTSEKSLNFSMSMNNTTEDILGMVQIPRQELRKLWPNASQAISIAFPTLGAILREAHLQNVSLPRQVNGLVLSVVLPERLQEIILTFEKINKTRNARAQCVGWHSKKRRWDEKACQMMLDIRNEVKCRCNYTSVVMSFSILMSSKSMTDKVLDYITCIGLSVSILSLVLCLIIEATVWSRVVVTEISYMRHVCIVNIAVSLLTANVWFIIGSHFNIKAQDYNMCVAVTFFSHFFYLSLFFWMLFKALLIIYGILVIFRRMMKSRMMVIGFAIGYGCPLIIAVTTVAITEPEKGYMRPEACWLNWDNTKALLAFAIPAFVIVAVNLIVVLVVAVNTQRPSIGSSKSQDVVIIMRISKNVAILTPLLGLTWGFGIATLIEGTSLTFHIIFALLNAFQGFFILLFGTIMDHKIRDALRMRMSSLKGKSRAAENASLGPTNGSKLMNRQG

348 GPCRs [7] = molecular target: T5, 348 GPCRs (Homo sapiens, UniProt Q9UJ42); settings: 10µM, Favipiravir 100μM
T5 construct: expressed in transfected cells; host or cells: HEK293A
T5 sequence (Q9UJ42 whole entry): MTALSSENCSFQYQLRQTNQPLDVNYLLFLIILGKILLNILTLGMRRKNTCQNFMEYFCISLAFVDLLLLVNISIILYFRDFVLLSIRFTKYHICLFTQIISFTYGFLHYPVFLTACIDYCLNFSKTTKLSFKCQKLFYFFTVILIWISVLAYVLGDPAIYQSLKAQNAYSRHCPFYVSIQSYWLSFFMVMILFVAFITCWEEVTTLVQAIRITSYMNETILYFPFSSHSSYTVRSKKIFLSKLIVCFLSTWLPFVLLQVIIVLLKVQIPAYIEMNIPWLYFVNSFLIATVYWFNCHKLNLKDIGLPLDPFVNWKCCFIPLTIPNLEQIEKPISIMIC

[8] = SSTR1 (somatostatin receptor 1), read-out: % GPCR activation compared to TPA
[9] = 5-HT7 (5-hydroxytryptamine receptor 7), read-out: % GPCR activation compared to TPA
[10] = NPY4R (neuropeptide Y receptor Y4), read-out: % GPCR activation compared to TPA
[11] = GPCR CXCR4 (chemokine (C-X-C motif) receptor 4), read-out: % GPCR activation compared to TPA
[12] = GPR125 (Adhesion G Protein-Coupled Receptor A2 (ADGRA3)), read-out: % GPCR activation compared to TPA
[13] = GPCR GPR115 (G-protein-coupled receptor 115 (ADGRF4)), read-out: % GPCR activation compared to TPA
[14] = GPR160 (G Protein-Coupled Receptor 160), read-out: % GPCR activation compared to TPA
[15] = read-out: % GPCR activation compared to TPA, SSTR1 (somatostatin receptor 1)
[16] = read-out: % GPCR activation compared to TPA, 5-HT7 (5-hydroxytryptamine receptor 7)
[17] = read-out: % GPCR activation compared to TPA, NPY4R (neuropeptide Y receptor Y4)
[18] = read-out: % GPCR activation compared to TPA, GPCR CXCR4 (chemokine (C-X-C motif) receptor 4)
[19] = read-out: % GPCR activation compared to TPA, GPR125 (Adhesion G Protein-Coupled Receptor A2 (ADGRA3))
[20] = read-out: % GPCR activation compared to TPA, GPCR GPR115 (G-protein-coupled receptor 115 (ADGRF4))
[21] = read-out: % GPCR activation compared to TPA, GPR160 (G Protein-Coupled Receptor 160)

Sequence of 348 GPCRs (Homo sapiens, UniProt P30872) (P30872 whole entry): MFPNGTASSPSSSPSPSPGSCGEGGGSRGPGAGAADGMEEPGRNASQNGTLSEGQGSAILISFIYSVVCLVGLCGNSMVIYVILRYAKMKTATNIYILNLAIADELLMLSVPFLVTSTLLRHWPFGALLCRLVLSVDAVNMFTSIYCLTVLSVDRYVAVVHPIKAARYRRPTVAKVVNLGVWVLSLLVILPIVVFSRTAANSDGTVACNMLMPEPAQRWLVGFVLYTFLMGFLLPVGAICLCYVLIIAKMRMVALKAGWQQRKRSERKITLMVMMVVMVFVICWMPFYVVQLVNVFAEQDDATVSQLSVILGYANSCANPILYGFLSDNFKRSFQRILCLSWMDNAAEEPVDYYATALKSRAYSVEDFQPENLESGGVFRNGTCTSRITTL

SMILES | activation at 10 µM (348 GPCRs [1]; [8]) [%] | activation at 100 µM (348 GPCRs [2]; [9]) [%] | activation at 100 µM (348 GPCRs [3]; [10]) [%] | activation at 10 µM (348 GPCRs [4]; [11]) [%] | activation at 10 µM (348 GPCRs [5]; [12]) [%] | activation at 10 µM (348 GPCRs [6]; [13]) [%] | activation at 10 µM (348 GPCRs [7]; [14]) [%] | activation at 10 µM (348 GPCRs [1]; [15]) [%] | activation at 100 µM (348 GPCRs [2]; [16]) [%] | activation at 100 µM (348 GPCRs [3]; [17]) [%] | activation at 10 µM (348 GPCRs [4]; [18]) [%] | activation at 10 µM (348 GPCRs [5]; [19]) [%] | activation at 10 µM (348 GPCRs [6]; [20]) [%] | activation at 10 µM (348 GPCRs [7]; [21]) [%] | activation at 100 µM (348 GPCRs [4]; GPCR CXCR4 (chemokine (C-X-C motif) receptor 4), 100μM, read-out: % GPCR activation compared to TPA) [%] | activation at 100 µM (348 GPCRs [6]; GPCR GPR115 (G-protein-coupled receptor 115 (ADGRF4)), 100μM, read-out: % GPCR activation compared to TPA) [%]
N#C[C@@]1(c2ccc3c(N)ncnn23)O[C@H](CO)[C@@H](O)[C@H]1O [GS441524] | -0.554 | 1.1 | -1.48 | -0.228 | -0.689 | -3.61 | 0.113 |  |  |  |  |  |  |  |  | 
CCC(CC)COC(=O)[C@H](C)N[P@](=O)(OC[C@H]1O[C@@](C#N)(c2ccc3c(N)ncnn23)[C@H](O)[C@@H]1O)Oc1ccccc1 [remdesivir] |  |  |  |  |  |  |  | 2.79 | 1.8 | -1.2 | 1.64 | -0.226 | -1.78 | 0.13 |  | 
CC(C)OC(=O)[C@H](C)N[P@](=O)(OC[C@H]1O[C@@H](n2ccc(=O)[nH]c2=O)[C@](C)(F)[C@@H]1O)Oc1ccccc1 [sofosbuvir] |  |  |  |  |  |  |  | -0.638 | -1.41 | -0.849 | 1.3 | 0.926 | -1.19 | 2.1 |  | 
NC(=O)c1nc(F)cnc1O [favipiravir, 6-fluoro-3-hydroxy-2-pyrazinecarboxamide] | 0.537 | 0.723 | -2.23 |  | -1.96 |  | -0.794 |  |  |  |  |  |  |  | -0.773 | -2.79
CC(C)C(=O)OC[C@H]1O[C@@H](n2ccc(NO)nc2=O)[C@H](O)[C@@H]1O [molnupiravir] | 0.451 | -0.625 | -1.31 | -1.55 | -0.998 | -1.43 | 0.0934 |  |  |  |  |  |  |  |  | 
